Laboratory results published in patent publication US4127576A, “Nortropine-carbazate derivatives” (Egyt Gyogyszervegyeszeti Gyar, priority 1976, dated 1978).
Where a name gives a salt, the structure may show the parent alone. Read-outs that look alike come from different tables or passages of the source.

Assays:
[1] = test system: mice; test: hypermotility provoked with amphetamine in mice (light interruption); format: in vivo, mouse
Procedure: (§1) The effect of 8-phenoxycarbonyl-3-hydrazinocarbonyl-oxy-nortropane exerted on the motilities of mice was tested according to the method of Borsy et al. (Arch. Int. Pharmacodyn. 124, 1- 2/1960/). The compound was administered orally in dosages of 20 to 80 mg/kg.
The above test method was applied also to study how 8-phenoxycarbonyl-3-hydrazinocarbonyloxy-nortropane does influence the hypermotility provoked with amphetamine (2-amino-1-phenyl-propane). Amphetamine was administered subcutaneously to mice in dosages of 7.5 mg/kg.

[2] = test system: rats; test: hypermotility provoked with amphetamine in rats (method of Janssen); format: in vivo, rat
Procedure: The effect of 8-phenoxycarbonyl-3-hydrazinocarbonyloxy-nortropane exerted on the hypermotility provoked with amphetamine on rats was examined by the method of Janssen (Psychopharmacologia 1, 389- 392/1960/). The stimulation of central nervous system was provoked with subcutaneous dosages of 7.5 mg/kg of amphetamine. The tests were performed on groups each consisting of 10 rats.

[3] = test system: rats; test: narcosis potentiating effect (prolongation of hexabarbital sleeping period); format: in vivo; conditions: Rattus norvegicus, po, read-out: ED50 (narcosis potentiating effect)
Procedure: (§2) The toxicities and narcosis potentiating effects of the novel compounds having the general formula (I) were studied on rats weighing 120 to 150 g. In the toxicity tests the animals were kept under observation for 7 days. The narcosis potentiating effect was studied on animals treated with an intravenous dosage of 50 mg/kg of hexabarbital (5-/1-cyclohexenyl/-1',5-dimethylbarbituric acid), and the prolongation of sleeping period was recorded. A 150% prolongated of sleeping period in relation to the controls was regarded as positive response. The number of animals with positive responses was related to the total number of animals treated.

[4] = toxicity test on rats, observation for 7 days; conditions: rat, in vivo, po
Procedure: as §2

[5] = test system: mice; test: effect on motility of mice (method of Borsy et al.); format: in vivo, mouse; conditions: oral, 20 to 80 mg/kg
Procedure: as §1

[6] = 0.9% saline 20 ml/kg p.o. + amphetamine 7.5 mg/kg s.c.
[7] = 0.9% saline 20 ml/kg s.c. + compound 40 mg/kg p.o., no amphetamine
[8] = compound 40 mg/kg p.o. + amphetamine 7.5 mg/kg s.c.

Structure (SMILES): CC(N)Cc1ccccc1 (stereo not drawn) [Amphetamine, 2-amino-1-phenyl-propane, reference compound]
- Light interruption (average) ([1]; amphetamine 7.5 mg/kg s.c. + 5% carboxymethylcellulose solution): 583
- Rearing (average) [2, 6]: 28.6
- Triangle walked in (average) [2, 6]: 28.5
- Washing (average) [2, 6]: 2.7

Structure (SMILES): CN(C)CCCN1c2ccccc2Sc2ccc(Cl)cc21 [Chloropromazine, 2-chloro-10-/3-dimethylaminopropyl/-phenothiazine, reference compound]
- ED50 ([3]; rats, hexabarbital 50 mg/kg i.v., 150% prolongation of sleeping period = positive response): 4.7 mg/kg
- LD50 at 168 h [4]: 210 mg/kg

Structure (SMILES): CCOC(=O)N1[C@@H]2CC[C@H]1C[C@@H](OC(=O)NN)C2 [Example 1, 8-Ethoxycarbonyl-3α-hydrazinocarbonyloxy-nortropane hydrochloride]
- ED50 [3]: 0.54 mg/kg
- LD50 at 168 h [4]: > 2000 mg/kg

Structure (SMILES): NNC(=O)O[C@H]1C[C@H]2CC[C@@H](C1)N2C(=O)Oc1ccccc1 [Example 3, 8-Phenoxycarbonyl-3α-hydrazinocarbonyloxy-nortropane]
- ED50 [3]: 3 mg/kg
- LD50 at 168 h [4]: 5000 mg/kg
- Light interruption (average) ([1]; amphetamine 7.5 mg/kg s.c. + compound 40 mg/kg p.o.): 270
- Light interruption (average) ([1]; amphetamine 7.5 mg/kg s.c. + compound 80 mg/kg p.o.): 175
- inhibition of locomotor stimulating effect of amphetamine ([1]; mice, both dosages examined (40 and 80 mg/kg p.o.)): completely inhibited
- Rearing (average) [2, 7]: 11.8
- Triangle walked in (average) [2, 7]: 16.1
- Washing (average) [2, 7]: 3.3
- Rearing (average) [2, 8]: 21.5
- Triangle walked in (average) [2, 8]: 14.5
- Washing (average) [2, 8]: 0.6
- influence on motility [5]: did not influence the motilities

Structure (SMILES): CC(=O)N(NC(=O)OC1CC2CCC(C1)N2C(=O)Oc1ccccc1)C(C)=O (stereo not drawn) [Example 14, 8-Phenoxycarbonyl-3α-(2',2'-diacetyl-hydrazinocarbonyloxy)-nortropane]
- ED50 [3]: 1 mg/kg
- LD50 at 168 h [4]: > 1200 mg/kg

Structure (SMILES): O=C(CCCN1CCC(O)(c2ccc(Cl)cc2)CC1)c1ccc(F)cc1 [Haloperidol, 4-(4-chlorophenyl/-4-hydroxy-piperidyl)-4'-fluoro-butyrophenone, reference compound]
- ED50 [3]: 2.8 mg/kg
- LD50 at 168 h [4]: 450 mg/kg
